US8097637B2, “Benzoyl-piperidine derivatives as dual modulators of the 5-HT2A and D3 receptors” (Hoffmann-La Roche Inc., priority 2007, dated 2012)

Tests used:
[1] = target: T1, human 5-HT2A serotonin receptor (Homo sapiens, UniProt P28223); assay: Radioligand binding ([3H]-ketanserin) to cloned human 5-HT2A receptor, HEK-293 EBNA cell membranes; conditions: 1.1 nM [3H]-ketanserin, 1 h at RT, Cheng-Prusoff
T1 construct: expressed in transfected cells; host or cells: HEK-293 EBNA cells, transient transfection; membrane preparation
T1 sequence (P28223 whole entry): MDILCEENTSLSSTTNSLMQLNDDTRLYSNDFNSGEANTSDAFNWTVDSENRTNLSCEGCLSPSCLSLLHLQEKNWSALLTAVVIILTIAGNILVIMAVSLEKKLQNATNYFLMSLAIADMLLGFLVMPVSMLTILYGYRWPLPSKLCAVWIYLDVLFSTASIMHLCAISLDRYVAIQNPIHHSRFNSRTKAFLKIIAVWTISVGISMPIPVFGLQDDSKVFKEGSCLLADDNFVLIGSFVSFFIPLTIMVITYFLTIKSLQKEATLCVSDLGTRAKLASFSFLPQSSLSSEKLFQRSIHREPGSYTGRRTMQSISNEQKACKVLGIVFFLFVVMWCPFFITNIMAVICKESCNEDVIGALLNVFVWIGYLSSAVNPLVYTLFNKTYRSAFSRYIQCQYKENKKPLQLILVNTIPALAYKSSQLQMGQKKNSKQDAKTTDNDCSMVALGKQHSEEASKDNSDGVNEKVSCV
Description: (§1) Membrane Preparation for Human D2, Human D3 and Human 5-HT2A Receptors
(§2) The cells were harvested 48 h post-transfection, washed three times with cold PBS and stored at −80° C. prior to use. The pellet was suspended in cold 50 mM Tris-HCl buffer containing 10 mM EDTA (pH 7.4) and homogenized with a Polytron (Kinematica AG, Basel, Switzerland) for 20-30 sec at 12.000 rpm. After centrifugation at 48.000×g for 30 min at 4° C., the pellet was resuspended in cold 10 mM Tris-HCl buffer containing 0.1 mM EDTA (pH 7.4), homogenized, and centrifuged as above. This pellet was further resuspended in a smaller volume of ice cold 10 mM Tris-HCl buffer containing 0.1 mM EDTA (pH 7.4) and homogenized with a Polytron for 20-30 sec at 12.000 rpm. The protein content of this homogenate was determined with the Bio-Rad (Bradford) Protein Assay (Biorad Laboratories GmbH, München, Germany) according to the instructions of the manufacturer using gamma globulin as the standard. This homogenate was stored at −80° C. in aliquots and thawed immediately prior to use.
(§3) Radioligand Binding Assay Conditions
(§4) Aliquots of membrane preparations were thawed at RT, resuspended in assay buffer (D2, D3: 50 mM Tris-HCl, 120 mM NaCl, 5 mM MgCl2, 1 mM EDTA, 5 mM KCl, 1.5 mM CaCl2, pH=7.4; 5-HT2A: 50 mM Tris-HCl, 10 mM MgCl2, 1 mM EGTA, pH=7.4), homogenized with a Polytron for 20-30 sec at 12.000 rpm and adjusted to a final concentration of approximately 7.5 μg protein/well (D2, D3) and 15 μg protein/well (5-HT2A), respectively.
The binding affinity (Ki) of the compounds was determined using radioligand binding. […] The nonspecific binding was determined with equally composed reaction mixtures in the presence of 10 μM unlabeled spiperone. Per well 45 μl of Microscint 40 (Perkin Elmer, Schwerzenbach, Switzerland) was added, plates for sealed, shaken for 20 min and counted for 3 min on a Topcount Microplate Scintillation Counter (Canberra Packard SA, Zürich, Switzerland) with quenching correction.
(§5) The CPM value for each duplicate of a concentration of competing compound was averaged (yl), then the % specific binding was calculated according to the equation (((yl-non-specific)/(total binding-non-specific))×100). Graphs were plotted with the % specific binding using XLfit, a curve fitting program that iteratively plots the data using Levenburg Marquardt algorithm. The single site competition analysis equation used was y=A+((B−A)/(1+((x/C)^D))), where y is the % specific binding, A is the minimum y, B is the maximum y, C is the IC50, x is the log10 of the concentration of the competing compound and D is the slope of the curve (the Hill Coefficient). […] The affinity constant (Ki) was calculated using the Cheng-Prusoff equation Ki=(IC50/1+([L]/Kd), where [L] is the concentration of radioligand and Kd is the dissociation constant of the radioligand at the receptor as determined by the saturation isotherm.

[2] = target: T2, human D3 dopamine receptor (Homo sapiens, UniProt P35462); assay: Radioligand binding ([3H]-spiperone) to cloned human D3 receptor, HEK-293 EBNA cell membranes; conditions: 0.5 nM [3H]-spiperone, 1 h at RT, Cheng-Prusoff
T2 construct: expressed in transfected cells; host or cells: HEK-293 EBNA cells, transient transfection; membrane preparation
T2 sequence (P35462 whole entry): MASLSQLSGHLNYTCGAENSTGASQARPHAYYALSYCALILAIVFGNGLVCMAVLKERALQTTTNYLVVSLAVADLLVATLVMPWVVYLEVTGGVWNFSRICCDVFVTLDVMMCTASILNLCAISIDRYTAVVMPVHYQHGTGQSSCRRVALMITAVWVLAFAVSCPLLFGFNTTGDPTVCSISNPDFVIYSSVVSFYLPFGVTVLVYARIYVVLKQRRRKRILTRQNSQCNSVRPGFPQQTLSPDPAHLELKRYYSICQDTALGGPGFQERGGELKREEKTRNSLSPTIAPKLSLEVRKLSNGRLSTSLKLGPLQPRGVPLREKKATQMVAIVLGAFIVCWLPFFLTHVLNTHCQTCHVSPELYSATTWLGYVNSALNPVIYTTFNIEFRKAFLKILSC
Description: The ability of the compounds to bind to the 5-HT2A, D3 and D2 receptors was determined using radioligand binding to cloned receptors selectively expressed in HEK-293 EBNA cells.
as §1
as §2, with “HEK-293 EBNA cells were transiently transfected with expression plasmids encoding for the human D2 or D3 dopamine- or for the human 5-HT2A serotonin receptor, respectively. The cells” for “The cells”
as §3, §4
(§6) The binding affinity (Ki) of the compounds was determined using radioligand binding. Membranes were incubated in a total volume of 200 μl with a fixed concentration of radioligand (final concentration approximately 0.7 nM [^3H]-spiperone for D2, 0.5 nM [^3H]-spiperone for D3, and 1.1 nM [^3H]-ketanserin for 5-HT2A) and ten concentrations of test compound in ranging between 10 μM-0.1 nM for 1 h at RT. At the end of the incubation, the reaction mixtures were filtered on to unifilter 96-well white microplates with bonded GF/C filters (Packard BioScience, Zürich, Switzerland; preincubated for 1 h in 0.1% polyethylenimine (PEI) in assay buffer) with a Filtermate 196 harvester (Packard BioScience) and washed 3 times with cold assay buffer. The nonspecific binding was determined with equally composed reaction mixtures in the presence of 10 μM unlabeled spiperone. Per well 45 μl of Microscint 40 (Perkin Elmer, Schwerzenbach, Switzerland) was added, plates for sealed, shaken for 20 min and counted for 3 min on a Topcount Microplate Scintillation Counter (Canberra Packard SA, Zürich, Switzerland) with quenching correction.
as §5

[3] = target: T3, human D2 dopamine receptor (Homo sapiens, UniProt P14416); assay: Radioligand binding ([3H]-spiperone) to cloned human D2 receptor, HEK-293 EBNA cell membranes; conditions: 0.7 nM [3H]-spiperone, 1 h at RT, Cheng-Prusoff
T3 construct: expressed in transfected cells; host or cells: HEK-293 EBNA cells, transient transfection; membrane preparation
T3 sequence (P14416 whole entry): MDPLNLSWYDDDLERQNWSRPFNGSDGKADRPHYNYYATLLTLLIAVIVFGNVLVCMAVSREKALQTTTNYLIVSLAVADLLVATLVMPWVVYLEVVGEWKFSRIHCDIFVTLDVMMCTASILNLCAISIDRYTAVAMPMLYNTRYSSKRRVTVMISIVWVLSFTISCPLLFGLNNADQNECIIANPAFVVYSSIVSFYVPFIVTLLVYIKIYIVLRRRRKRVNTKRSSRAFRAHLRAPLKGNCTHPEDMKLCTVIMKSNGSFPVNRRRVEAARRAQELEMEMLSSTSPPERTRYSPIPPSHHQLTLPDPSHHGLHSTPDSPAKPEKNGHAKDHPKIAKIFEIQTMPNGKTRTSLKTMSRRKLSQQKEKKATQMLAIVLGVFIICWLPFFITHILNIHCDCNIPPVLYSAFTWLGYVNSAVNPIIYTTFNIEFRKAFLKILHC
Description: as §1
as §2, with “HEK-293 EBNA cells were transiently transfected with expression plasmids encoding for the human D2 or D3 dopamine- or for the human 5-HT2A serotonin receptor, respectively. The cells” for “The cells”
as §3, §4, §6, §5

SMILES | Ki [1] [nM] | Ki [2] [nM] | Ki [3] [nM]
O=C(CC1CCC(OC2CCOC2)CC1)N[C@H]1CC[C@H](CCN2CCC(C(=O)c3ccc(F)cc3)CC2)CC1 (mixture of isomers) [Example 17, rac-N-Trans (4-{2-[4-(4-Fluoro-benzoyl)-piperidin-1-yl]-ethyl}-cyclohexyl)-2-[4-(tetrahydro-furan-3-yloxy)-cyclohexyl]-acetamide] | 11 | 40 | 2610
COC[C@H]1C[C@H](CC(=O)N[C@H]2CC[C@H](CCN3CCC(C(=O)c4ccc(F)cc4)CC3)CC2)C1 [Example 25, N-trans (4-{2-[4-(4-Fluoro-benzoyl)-piperidin-1-yl]-ethyl}-cyclohexyl)-2-trans (3-methoxymethyl-cyclobutyl)-acetamide] | 9 | 27 | 1860
